16 molecules from PubChem BioAssay AID248 (DTP/NCI, 2004) can be followed below.

The assay deals with L1210 leukemia ip in BDF1 mice, survival T/C. Kind of assay: NCI In Vivo Anticancer Drug Screen. Data for tumor model L1210 Leukemia (intraperitoneal) in B6D2F1 (BDF1) mice. To be noted: endpoint: mean survival time, higher = longer survival. The essentials:
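Value reflects the ratio of survival in compound-treated mice to survival in vehicle-treated controls, with both groups carrying the same transplanted tumor.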

Where [1] appears, read: dose: 100.0 mg/kg/injection, schedule: Q04DX002 (ip), vehicle: saline with Tween-80.
Setting [2] is: dose: 200.0 mg/kg/injection, schedule: Q04DX002 (ip), vehicle: saline with Tween-80.
Where [3] appears, read: dose: 400.0 mg/kg/injection, schedule: Q04DX002 (ip), vehicle: saline with Tween-80.
[4] abbreviates: dose: 100.0 mg/kg/injection, schedule: Q01DX009 (ip), vehicle: saline with Tween-80.
The mark [5] stands for this setting: dose: 100.0 mg/kg/injection, schedule: Q04DX003 (ip), vehicle: saline with Tween-80.
The mark [6] stands for this setting: dose: 200.0 mg/kg/injection, schedule: Q01DX009 (ip), vehicle: saline with Tween-80.
Where [7] appears, read: dose: 200.0 mg/kg/injection, schedule: Q04DX003 (ip), vehicle: saline with Tween-80.
[8] abbreviates: dose: 400.0 mg/kg/injection, schedule: Q01DX009 (ip), vehicle: saline with Tween-80.
The mark [9] stands for this setting: dose: 400.0 mg/kg/injection, schedule: Q04DX003 (ip), vehicle: saline with Tween-80.
Where [10] appears, read: dose: 100.0 mg/kg/injection, schedule: Q01DX009 (ip), vehicle: Klucel (hydroxypropylcellulose) (HPC).
[11] abbreviates: dose: 200.0 mg/kg/injection, schedule: Q01DX009 (ip), vehicle: Klucel (hydroxypropylcellulose) (HPC).
The mark [12] stands for this setting: dose: 100.0 mg/kg/injection, schedule: Q04DX003 (ip), vehicle: Klucel (hydroxypropylcellulose) (HPC).
Where [13] appears, read: dose: 200.0 mg/kg/injection, schedule: Q04DX003 (ip), vehicle: Klucel (hydroxypropylcellulose) (HPC).
The mark [14] stands for this setting: dose: 400.0 mg/kg/injection, schedule: Q04DX003 (ip), vehicle: Klucel (hydroxypropylcellulose) (HPC).

Toxic doses and inconclusive results are not listed.

For `Nc1nc(N)c2nc(CNc3ccc(CC(=O)NC(CC(=O)O)C(=O)O)cc3)cnc2n1` (configuration not stated), the T/C runs as follows: (dose: 25.0 mg/kg/injection, schedule: Q01DX009 (ip), vehicle: sodium bicarbonate) 104 % of control; (dose: 50.0 mg/kg/injection, schedule: Q01DX009 (ip), vehicle: sodium bicarbonate) 106 % of control; (dose: 100.0 mg/kg/injection, schedule: Q01DX009 (ip), vehicle: sodium bicarbonate) 108 % of control.
For the molecule `O=C(CCC(=O)[O][Sn]([c]1ccccc1)([c]1ccccc1)[c]1ccccc1)[O][Sn]([c]1ccccc1)([c]1ccccc1)[c]1ccccc1`, the T/C reads like this: (dose: 1.56 mg/kg/injection, schedule: Q01DX009 (ip), vehicle: saline with Tween-80) 93 % of control; (dose: 3.12 mg/kg/injection, schedule: Q01DX009 (ip), vehicle: saline with Tween-80) 90 % of control; (dose: 6.25 mg/kg/injection, schedule: Q04DX003 (ip), vehicle: saline with Tween-80) 95 % of control; (dose: 12.5 mg/kg/injection, schedule: Q01DX001 (ip), vehicle: saline) 104 % of control; (dose: 25.0 mg/kg/injection, schedule: Q01DX001 (ip), vehicle: saline) 91 % of control.
Take `N#CCC(=O)N/N=C/c1ccccc1`: the T/C was 97 % of control under setting [1], 101 % of control under setting [2] and 101 % of control under setting [3].
Regarding `CCN1/C(=C/C(C)=C/c2[se]c3ccc(C)cc3[n+]2CC)[Se]c2ccc(C)cc21`, the T/C is, setting by setting: (dose: 2.0 mg/kg/injection, schedule: Q01DX001 (ip), vehicle: other) 109 % of control; (dose: 4.0 mg/kg/injection, schedule: Q01DX001 (ip), vehicle: other) 114 % of control.
For `O=C(/C=C/c1ccco1)c1ccc(F)cc1`, the T/C reads like this: (dose: 75.0 mg/kg/injection, schedule: Q01DX001 (ip), vehicle: saline) 94 % of control; (dose: 150.0 mg/kg/injection, schedule: Q01DX001 (ip), vehicle: saline) 98 % of control; (dose: 300.0 mg/kg/injection, schedule: Q01DX001 (ip), vehicle: saline) 102 % of control.
For `O=C(CSc1cc(-c2ccc(Cl)cc2)s[s+]1)c1ccccc1`, the T/C was 100 % of control under setting [4]; 93 % of control under setting [5]; 97 % of control under setting [6]; 96 % of control under setting [7]; 103 % of control under setting [8]; 100 % of control under setting [9].
`CCCCCCCCCCCCNC(C)=O`: the T/C (dose: 100.0 mg/kg/injection, schedule: Q01DX005 (ip), vehicle: Klucel (hydroxypropylcellulose) (HPC)) is 97 % of control; the T/C under setting [10] was 105 % of control; the T/C (dose: 100.0 mg/kg/injection, schedule: Q04DX002 (ip), vehicle: Klucel (hydroxypropylcellulose) (HPC)) is 98 % of control; the T/C under setting [5] was 97 % of control; the T/C (dose: 200.0 mg/kg/injection, schedule: Q01DX005 (ip), vehicle: Klucel (hydroxypropylcellulose) (HPC)) is 94 % of control; the T/C under setting [11] was 99 % of control. Besides, the T/C was 91 % of control (dose: 200.0 mg/kg/injection, schedule: Q04DX002 (ip), vehicle: Klucel (hydroxypropylcellulose) (HPC)); 98 % of control under setting [7]; 102 % of control (dose: 400.0 mg/kg/injection, schedule: Q01DX005 (ip), vehicle: Klucel (hydroxypropylcellulose) (HPC)); 106 % of control (dose: 400.0 mg/kg/injection, schedule: Q04DX002 (ip), vehicle: Klucel (hydroxypropylcellulose) (HPC)); 90 % of control under setting [9].
For the molecule `CSc1nccc(NN=C2CCCCC2)n1`, the T/C reads like this: (dose: 100.0 mg/kg/injection, schedule: Q01DX001 (ip), vehicle: Klucel (hydroxypropylcellulose) (HPC)) 98 % of control; under setting [10], 96 % of control; (dose: 200.0 mg/kg/injection, schedule: Q01DX001 (ip), vehicle: Klucel (hydroxypropylcellulose) (HPC)) 94 % of control; under setting [11], 98 % of control; (dose: 400.0 mg/kg/injection, schedule: Q01DX001 (ip), vehicle: Klucel (hydroxypropylcellulose) (HPC)) 91 % of control.
As for `CN(C)c1ccc(/C=N/NC(=O)C(O)C(O)C(O)C(O)CO)c(Cl)c1` (configuration not stated), the T/C runs as follows: under setting [1], 98 % of control; under setting [2], 91 % of control; under setting [3], 88 % of control.
Regarding `CN(C)c1ccc(CN2CCCN(Cc3ccc(N(C)C)cc3)C2c2ccccc2O)cc1`, the T/C was 100 % of control under setting [4]; 97 % of control under setting [12]; 107 % of control under setting [6]; 100 % of control under setting [13]; 106 % of control under setting [8]; 97 % of control under setting [14].
Turning to `Cc1nc(N)sc1C`, the T/C reads like this: (dose: 25.0 mg/kg/injection, schedule: Q04DX002 (ip), vehicle: saline with Tween-80) 100 % of control; (dose: 25.0 mg/kg/injection, schedule: Q04DX003 (ip), vehicle: saline) 89 % of control; (dose: 50.0 mg/kg/injection, schedule: Q04DX002 (ip), vehicle: saline with Tween-80) 102 % of control; (dose: 50.0 mg/kg/injection, schedule: Q04DX003 (ip), vehicle: saline) 100 % of control; (dose: 75.0 mg/kg/injection, schedule: Q01DX001 (ip), vehicle: carboxymethylcellulose (CMC)) 100 % of control; (dose: 100.0 mg/kg/injection, schedule: Q04DX003 (ip), vehicle: saline) 102 % of control. Besides, the T/C is 102 % of control (dose: 150.0 mg/kg/injection, schedule: Q01DX001 (ip), vehicle: carboxymethylcellulose (CMC)) and 100 % of control (dose: 300.0 mg/kg/injection, schedule: Q01DX001 (ip), vehicle: carboxymethylcellulose (CMC)).
In the case of `CCCC(=O)Oc1ccc(/C=N/NC(N)=S)nc1`, the T/C was 119 % of control under setting [4]; 113 % of control under setting [1]; 156 % of control under setting [6]; 176 % of control under setting [8]; 109 % of control (dose: 600.0 mg/kg/injection, schedule: Q01DX009 (ip), vehicle: saline with Tween-80).
Take `CCN(CCCCO)CCc1c[nH]c2ccc(OC)cc12`: the T/C (dose: 4.68 mg/kg/injection, schedule: Q01DX009 (ip), vehicle: saline) was 98 % of control; the T/C (dose: 9.37 mg/kg/injection, schedule: Q01DX009 (ip), vehicle: saline) was 106 % of control; the T/C (dose: 18.75 mg/kg/injection, schedule: Q01DX009 (ip), vehicle: saline) was 96 % of control; the T/C (dose: 18.75 mg/kg/injection, schedule: Q04DX003 (ip), vehicle: saline) is 112 % of control; the T/C (dose: 37.5 mg/kg/injection, schedule: Q01DX009 (ip), vehicle: saline) is 104 % of control; the T/C (dose: 37.5 mg/kg/injection, schedule: Q04DX003 (ip), vehicle: saline) was 101 % of control. Further, the T/C was 95 % of control (dose: 75.0 mg/kg/injection, schedule: Q01DX009 (ip), vehicle: saline); 106 % of control (dose: 75.0 mg/kg/injection, schedule: Q04DX003 (ip), vehicle: saline); 109 % of control (dose: 150.0 mg/kg/injection, schedule: Q01DX009 (ip), vehicle: saline).
For `CCOc1ccn(CC(=O)c2ccc(Cl)s2)c(=O)n1`, the T/C was 93 % of control under setting [4]; 100 % of control under setting [5]; 90 % of control under setting [6]; 100 % of control under setting [7]; 86 % of control under setting [8]; 101 % of control under setting [9].
On to `CCOC(=O)/C(=C/c1ccc(OC)cc1)P(=O)(OCC)OCC`, for which the T/C was 91 % of control (dose: 50.0 mg/kg/injection, schedule: Q01DX001 (ip), vehicle: saline); 91 % of control (dose: 100.0 mg/kg/injection, schedule: Q01DX001 (ip), vehicle: saline); 103 % of control (dose: 200.0 mg/kg/injection, schedule: Q01DX001 (ip), vehicle: saline); 95 % of control (dose: 400.0 mg/kg/injection, schedule: Q01DX001 (ip), vehicle: saline).
Regarding `O=C(O)CNS(=O)(=O)CCN1C(=O)c2ccccc2C1=O`, the T/C under setting [12] is 96 % of control, the T/C under setting [13] is 92 % of control and the T/C under setting [14] was 96 % of control.
